# In US20240294572A1, “Antimicrobial Peptides” (priority 2021, published 2024):
# Non-standard residues stand in square brackets, D forms with d. Residues, ends and D or L forms follow the SMILES beside them. *: point of attachment. Decanoyl = CCCCCCCCCC(=O)*
# Tests used:
# S. aureus USA300 LAC = assay: Bacterial membrane permeation (propidium iodide); assay type: cell-based; details: 12.5 μM
# Protocol: The experiment was performed as described with minor modifications (Mishra, et al. (2019) Proc. Natl. Acad. Sci., 116:13517-13522). Serially diluted 10×peptides (10 μL each well) were created in 96-well microtiter plates. Propidium iodide (2 μL) at a fixed concentration of 20 μM was added to each well followed by 88 μL of the exponential phase S. aureus USA300 culture (a final OD600˜0.1 in TSB media or PBS). Both daptomycin (98%, TSZChem, MA) and rifamycin (98%, Alfa Aesar, MA) were used as controls. The plate was incubated at 37° C. with continuous shaking at 100 rpm in a FLUOstar® Omega (BMG LABTECH, NC) microplate reader. The samples fluorescence was read at every 5 minutes for 24 cycles with excitation and emission wavelengths of 584 and 620 nm, respectively. Plots were generated using average values from the experiments using GraphPad Prism 7.
# [1] = tested on: S. aureus USA300 transposon mutant SAUSA300_1515; assay type: cell-based
# Protocol: (§1) The antimicrobial susceptibility of over 20 MRSA transposon mutants were also tested, based on a transposon library screening, in the presence of LL-37 peptides (Golla, et al. (2020) ACS Infect. Dis., 6:1866-1881). This Nebraska Transposon Mutant Library of S. aureus USA300 consists of 1920 mutants, each with one nonessential gene disabled due to a transposon insertion (Fey, et al. (2013) mBio 4:e00537-12). The correct insertion of the transposon to each Staph mutant had been verified (Golla, et al. (2020) ACS Infect. Dis., 6:1866-1881). Antimicrobial susceptibility to the new peptide C10-KR8d was evaluated in the same manner as MIC assays. Susceptible strains could be inhibited at a peptide concentration lower than the MIC against the wild strain S. aureus JE2.
# [2] = tested on: S. aureus USA300 transposon mutant SAUSA300_0647 (vraF); assay type: cell-based
# Protocol: as §1
# [3] = tested on: S. aureus JE2 (SAUSA300, wild type); assay type: cell-based; details: JE2 (SA, wild type)
# Protocol: as §1
# [4] = tested on: S. aureus USA300 transposon mutant SAUSA300_1962; assay type: cell-based
# Protocol: as §1
# [5] = tested on: S. aureus USA300 transposon mutant SAUSA300_1036; assay type: cell-based
# Protocol: as §1
# [6] = tested on: S. aureus USA300 transposon mutant SAUSA300_1228 (thrB); assay type: cell-based
# Protocol: as §1
# In vivo toxicity = assay: In vivo toxicity; design: species or system C57BL/6 mice
# Protocol: Toxicity was assessed in female C57BL/6 mice by the intraperitoneal administration of increasing doses of the antimicrobial peptide C10-KR8d (10, 20, and 40 mg/kg) and a control group without peptide treatment. The animals were then observed for 5 days (twice a day). The number of moribund/dead animals for each of the doses was noted and plotted.
# Mice were caged, fed, and environmentally adapted as described (Lakshmaia, et al. (2020) Proc. Natl. Acad. Sci., 117:19446-19454). All animal manipulations were performed in a class II laminar flow biological safety cabinet.
# S. aureus USA300 = assay: Bacterial membrane depolarization (DiBAC4(3)); assay type: cell-based; details: 3.1, 6.25, 12.5, and 25 μM; 40 minutes
# Protocol: The experiment was conducted as described (Marks, et al. (2013) PLOS One 8:e63158). In brief, an overnight culture of S. aureus USA300 was subcultured in a fresh TSB medium and grown to the exponential phase. Cells were spun using centrifugation, washed 2× with PBS, resuspended in twice the volume of PBS containing 25 mM glucose, and incubated at 37° C. for 15 minute. For membrane depolarization measurements, 500 nM (final concentration) of the dye DiBAC4 (3) bis(1,3-dibutylbarbituric acid) trimethine oxonol (ANASPEC, CA) was added, and the reaction mixture was vortexed gently. Aliquots of 90 μL of the energized bacteria solution were loaded to the wells, and the plate was fed into a FLUOstar® Omega microplate reader. Fluorescence was read for 20 minutes at excitation and emission wavelengths of 485 and 520 nm, respectively, to get dye normalization. Then, 10 μL of the peptide solution was added and gently mixed. Fluorescence readings were recorded for 40 minutes, where Triton™ X-100 (0.1%) was used as a positive control.
# [7] = tested on: S. aureus USA300 transposon mutant SAUSA300_1503; assay: Antimicrobial susceptibility of transposon mutant; assay type: cell-based; design: key: No = no MIC changes of C10-KR8d against the WT and the mutant S. aureus strains measured in 50% TSB; details: mutant SAUSA300_1503 versus WT
# Protocol: as §1
# [8] = tested on: S. aureus USA300 transposon mutant SAUSA300_0829 (lipA); assay: Antimicrobial susceptibility of transposon mutant; assay type: cell-based; design: key: No = no MIC changes of C10-KR8d against the WT and the mutant S. aureus strains measured in 50% TSB; details: mutant SAUSA300_0829 lipA versus WT
# Protocol: as §1
# [9] = tested on: S. aureus USA300 transposon mutant SAUSA300_0186 (argC); assay: Antimicrobial susceptibility of transposon mutant; assay type: cell-based; design: key: No = no MIC changes of C10-KR8d against the WT and the mutant S. aureus strains measured in 50% TSB; details: mutant SAUSA300_0186 argC versus WT
# Protocol: as §1
# [10] = tested on: S. aureus USA300 transposon mutant SAUSA300_0394; assay: Antimicrobial susceptibility of transposon mutant; assay type: cell-based; design: key: No = no MIC changes of C10-KR8d against the WT and the mutant S. aureus strains measured in 50% TSB; details: mutant SAUSA300_0394 versus WT
# Protocol: as §1
compound,measurement,setting,value
CCCCCCCCCC(=O)N[C@H](CCCCN)C(=O)N[C@H](CCCNC(=N)N)C(=O)N[C@@H](C(=O)N[C@H](Cc1c[nH]c2ccccc12)C(=O)N[C@H](CCC(N)=O)C(=O)N[C@H](CCCNC(=N)N)C(=O)N[C@@H](C(=O)N[C@H](CCCCN)C(N)=O)[C@H](C)CC)[C@H](C)CC [Peptide C10-KR8d] (Decanoyl-[dK][dR][dI][dW][dQ][dR][dI][dK]-NH2),membrane permeation (propidium iodide fluorescence),S. aureus USA300 LAC,able to permeate the membranes of S. aureus USA300 LAC
same,MIC,"[1]; mutant SAUSA300_1515, 50% TSB",1.6 to 3.1 µM
same,Susceptible?,[1]; mutant SAUSA300_1515 versus WT,Yes
same,Susceptible?,[2]; mutant SAUSA300_0647 vraF versus WT,Yes
same,MIC,"[2]; mutant SAUSA300_0647 vraF, 50% TSB",1.6 to 3.1 µM
same,MIC,[3],3.1 µM
same,MIC,"[4]; mutant SAUSA300_1962, 50% TSB",1.6 to 3.1 µM
same,Susceptible?,[4]; mutant SAUSA300_1962 versus WT,Yes
same,MIC,"[5]; mutant SAUSA300_1036, 50% TSB",1.6 to 3.1 µM
same,Susceptible?,[5]; mutant SAUSA300_1036 versus WT,Yes
same,Susceptible?,[6]; mutant SAUSA300_1228 thrB versus WT,Yes
same,MIC,"[6]; mutant SAUSA300_1228 thrB, 50% TSB",1.6 to 3.1 µM
same,MTD at 5 days,"In vivo toxicity; female, C57BL/6, mouse, in vivo, ip, C57BL/6 mice, read-out: maximal tolerated dose (MTD)",≥ 20 mg/kg
same,survival of mice,In vivo toxicity; i.p. 40 mg/kg,all mice died in a day
same,survival of mice,"In vivo toxicity; i.p. 10 or 20 mg/kg, 5 days observation",all mice survived
same,membrane depolarization ability (order),S. aureus USA300,Triton™ X-100>17BIPHE2>C10-KR8d>daptomycin
same,Susceptible?,[7],No
same,Susceptible?,[8],No
same,Susceptible?,[9],No
same,Susceptible?,[10],No
